How the values were obtained:
[1] = tested on: pig sciatic nerve tissue cross sections; assay: Ex vivo nerve-specific fluorophore screening on nerve tissue sections; settings: 100 μM fluorophore, 20 min incubation, pig sciatic nerve sections
Method: Phase contrast image (top) and fluorescence image (bottom) of nerve tissue sections incubated with 100 μM of test fluorophores are shown. Nerve-specific fluorescence intensity was determined using staining of pig sciatic nerve cut in cross section. Nerve tissue sections were incubated in 30% FBS solutions without (negative control, autofluorescence only) and with each fluorophore. As a positive control, previously reported nerve-specific BMB was used. Shown are phase contrast image (top) and fluorescence image (bottom) of nerve tissue sections incubated with 100 μM of each fluorophore. The control autofluorescence images were taken with equivalent exposure time and normalization. Arrowheads indicate fluorescence signals in nerve bundles. Ad=adipose tissue. Scale bars=200 μm. The SBR of each nerve relative to the neighboring adipose tissue was quantified and labeled as—, SBR<1; +, SBR=1−2; and ++, SBR >2.
Sciatic nerves from female Yorkshire pigs were harvested, fixed in 2% paraformaldehyde (PFA), and flash frozen in optimal cutting temperature (OCT) compound using liquid nitrogen. Nerve tissues were cut in cross section using a cryostat at […] thickness onto positively charge glass slides. Tissue sections were washed once with phosphate buffered saline (PBS) for 2 min to remove residual OCT. The tissue was then fixed to the slide with 2% PFA for 15 min, followed by washing with PBS (3×5 min). A formulation was previously developed for intravenous (IV) administration and was used in the current study to incubate the fluorophores with the nerve tissue (25). All fluorophores were mixed from the 100 mM stock solution into the IV formulation at 100 µM and incubated with the washed nerve tissue sections at room temperature for 20 min. Additional IV formulation not containing fluorophore was mixed and used to wash each nerve section twice (5 min per wash) following incubation with the formulated fluorophore. The nerve section was then washed an additional 2 times with PBS (5 min per each), after which coverslips were mounted using Fluoromount-G (Southern Biotech, Birmingham, Ala.).
NIR fluorescence microscopy for ex vivo nerve tissue slides was performed on a Nikon Eclipse TE300 microscope system as previously described (12, 19, 25). The microscope was equipped with a 100 W mercury light source, NIR-compatible optics, and a NIR-compatible 10× Plan Fluor objective lens and a 100× Plan Apo oil immersion objective lens (Nikon, Melville, N.Y.). Images were acquired on an Orca-AG (Hamamatsu, Bridgewater, N.J.). Image acquisition and analysis was performed using IPLab software (Scanalytics, Fairfax, Va.). A custom filter set (Chroma Technology Corporation, Brattleboro, Vt.) composed of a 650±22 nm excitation filter, a 675 nm dichroic mirror, and an 710±25 nm emission filter were used to detect Oxazine derivatives and Rhodamine 800 signals in the nerve tissue slides. For BMB, a mercury light source was passed through a 360±25 nm BP excitation filter, a 400 nm LP beam splitter, and a 550±50 nm emission filter.

[2] = Optical property measurements (absorbance and fluorescence spectra); type: physicochemical; settings: 100% FBS with 50 mM HEPES, pH 7.4, 37° C.
Method: Absorbance and fluorescence spectra were obtained at a concentration of […] in 100% FBS supplemented with 50 mM HEPES, pH 7.4. B) Optical properties of Oxazine 4 were measured in PBS (pH 7.4), FBS (pH 7.4), MeOH, and DMSO.
Oxazine derivatives were obtained from Fisher Scientific Inc. (Pittsburgh, Pa.) or Sigma-Aldrich (Saint Louis, Mo.), and BMB was synthesized as described previously (25). Optical measurements were performed at 37° C. in phosphate-buffered saline (PBS), pH 7.4 or 100% fetal bovine serum (FBS) buffered with 50 mM HEPES, pH 7.4. Absorbance and fluorescence emission spectra were measured using fiber optic HR2000 absorbance (200-1100 nm) and USB2000FL fluorescence (350-1000 nm) spectrometers (Ocean Optics, Dunedin, Fla.). NIR excitation was provided by a 532 nm green laser pointer (Opcom Inc., Xiamen, China) set to 5 mW and coupled through a […] core diameter, NA 0.22 fiber (Fiberguide Industries, Stirling, N.J.). In silico calculation of the partition coefficient (log D at pH 7.4) was calculated using Marvin and J Chem calculator plugins (ChemAxon, Budapest, Hungary). Chemical similarities were calculated by Instant J Chem 6.04 using “Chemical Hashed Fingerprint” with the Normalized Euclidean dissimilarity screening configuration (ChemAxon).
All optical measurements were performed at 37° C. in phosphate-buffered saline (PBS), pH 7.4, 100% fetal bovine serum (FBS) buffered with 50 mM HEPES, pH 7.4, methanol (MeOH), or dimethyl sulfoxide (DMSO). Absorbance and fluorescence emission spectra of the series of NIR fluorophores were measured using fiber optic HR2000 absorbance (200-1100 nm) and USB2000FL fluorescence (350-1000 nm) spectrometers (Ocean Optics, Dunedin, Fla.). Excitation light was provided by a 532 nm green laser pointer (Opcom Inc., Xiamen, China) set to 5 mW and coupled through a 300 μm core diameter, NA 0.22 fiber (Fiberguide Industries, Stirling, N.J.). In silico calculation of the partition coefficient (log D at pH 7.4) was calculated using Marvin and J Chem calculator plugins (ChemAxon, Budapest, Hungary).

Abs (peak absorbance) [2]: 616 nm
Em (peak emission) [2]: 635 nm
λ (extinction coefficient) [2]: 143,000 M^−1cm^−1
SMILES: CC/N=c1/cc2oc3cc(NCC)c(C)cc3nc-2cc1C [Oxazine 4]
nerve-specific fluorescence signal in cross-sectioned nerve [1]: strong fluorescence signal throughout the cross-sectioned nerve

From patent US11001562B2, “Near-infrared fluorescent nerve contrast agents and methods of use thereof” (Beth Israel Deaconess Medical Center, priority 2013, dated 2021)
